Data from patent US20080063668A1, “Nitroimidazole and terconazole composition and method” (priority 2006, published 2008).

Columns and labels:
[1] = tested on: Gardnerella vaginalis ATCC 14019; experiment: Inhibition of bacteria growth, drug dilution tubes, anaerobic; assay type: cell-based; parameters: key to growth: (+) for growth; (−) for no growth; (±) for suboptimal growth after an initial observation of growth
Method: (§1) Serial dilutions of tinidazole and terconazole were prepared by adding measured amounts of each substance to water (both individually and in combination). Seven bacterial organisms that are common pathogens in bacterial vaginosis were grown anaerobically in the medium as listed in Table 4 under a N2/H2/CO2 (85:5:10) head space atmosphere. [table] These cultures were diluted to a 0.5 McFarland standard prior to inoculation of drug dilution tubes. One (1) mL of the 0.5 McFarland preparation was inoculated to an anaerobically prepared test tube containing 0.8 mL of Difco anaerobic medium (DAMM) and 0.2 mL of appropriate diluted antimicrobial or antimicrobial combination for a total of 2 mL. The inoculated tubes were then incubated at 37° C. and monitored daily for growth. Growth was scored with a (+) for growth, (−) for no growth, and (±) for suboptimal growth after an initial observation of growth. Tinidazole is abbreviated as TNZ and terconazole is abbreviated as TER in Tables 5 through 11.

Atopobium vaginae BAA-55 = experiment: as above; assay type: cell-based; parameters: key to growth: (+) for growth; (−) for no growth; (±) for suboptimal growth after an initial observation of growth
Method: as §1

CC(C)N1CCN(c2ccc(OCC3COC(Cn4cncn4)(c4ccc(Cl)cc4Cl)O3)cc2)CC1 (stereo not drawn) [TER, cis-1-[p[[2-(2,4-dichlorophenyl)-2-(1 H-1,2,4-triazol-1-ylmethyl)-1,3-dioxolan-4-yl]methoxy]phenyl]-4-isopropylpiperazine]
antibacterial activity compared with tinidazole [1]: superior to the antibacterial compound tinidazole | growth ([1]; TER 3.1 μg/ml, DAY 1): (+) | growth ([1]; TER 3.1 μg/ml, DAY 2): (+) | growth ([1]; TER 3.1 μg/ml, DAY 3): (+) | growth ([1]; TER 3.1 μg/ml, DAY 4): (+) | growth ([1]; TER 3.1 μg/ml, DAY 5): (+) | growth ([1]; TER 6.2 μg/ml, DAY 1): (+) | growth ([1]; TER 6.2 μg/ml, DAY 2): (+) | growth ([1]; TER 6.2 μg/ml, DAY 3): (+) | growth ([1]; TER 6.2 μg/ml, DAY 4): (+) | growth ([1]; TER 6.2 μg/ml, DAY 5): (+) | growth ([1]; TER 12.5 μg/ml, DAY 1): (+) | growth ([1]; TER 12.5 μg/ml, DAY 2): (+) | growth ([1]; TER 12.5 μg/ml, DAY 3): (+) | growth ([1]; TER 12.5 μg/ml, DAY 4): (+) | growth ([1]; TER 12.5 μg/ml, DAY 5): (+) | growth ([1]; TER 25 μg/ml, DAY 1): (+) | growth ([1]; TER 25 μg/ml, DAY 2): (+) | growth ([1]; TER 25 μg/ml, DAY 3): (+) | growth ([1]; TER 25 μg/ml, DAY 4): (+) | growth ([1]; TER 25 μg/ml, DAY 5): (+) | growth ([1]; TER 50 μg/ml, DAY 1): (+) | growth ([1]; TER 50 μg/ml, DAY 2): (+) | growth ([1]; TER 50 μg/ml, DAY 3): (+) | growth ([1]; TER 50 μg/ml, DAY 4): (+) | growth ([1]; TER 50 μg/ml, DAY 5): (+) | growth ([1]; TER 100 μg/ml, DAY 1): (+) | growth ([1]; TER 100 μg/ml, DAY 2): (+) | growth ([1]; TER 100 μg/ml, DAY 3): (+) | growth ([1]; TER 100 μg/ml, DAY 4): (+) | growth ([1]; TER 100 μg/ml, DAY 5): (+) | growth ([1]; TER 200 μg/ml, DAY 1): (+) | growth ([1]; TER 200 μg/ml, DAY 2): (+) | growth ([1]; TER 200 μg/ml, DAY 3): (+) | growth ([1]; TER 200 μg/ml, DAY 4): (+) | growth ([1]; TER 200 μg/ml, DAY 5): (+) | growth ([1]; TER 400 μg/ml, DAY 1): (+) | growth ([1]; TER 400 μg/ml, DAY 2): (+) | growth ([1]; TER 400 μg/ml, DAY 3): (+) | growth ([1]; TER 400 μg/ml, DAY 4): (+) | growth ([1]; TER 400 μg/ml, DAY 5): (+) | growth ([1]; TER 800 μg/ml, DAY 1): (−) | growth ([1]; TER 800 μg/ml, DAY 2): (−) | growth ([1]; TER 800 μg/ml, DAY 3): (−) | growth ([1]; TER 800 μg/ml, DAY 4): (−) | growth ([1]; TER 800 μg/ml, DAY 5): (−) | growth (Atopobium vaginae BAA-55; TER 3.1 μg/ml, DAY 1): (+) | growth (Atopobium vaginae BAA-55; TER 3.1 μg/ml, DAY 2): (+) | growth (Atopobium vaginae BAA-55; TER 3.1 μg/ml, DAY 3): (+) | growth (Atopobium vaginae BAA-55; TER 3.1 μg/ml, DAY 4): (+) | growth (Atopobium vaginae BAA-55; TER 3.1 μg/ml, DAY 5): (+) | growth (Atopobium vaginae BAA-55; TER 6.2 μg/ml, DAY 1): (+) | growth (Atopobium vaginae BAA-55; TER 6.2 μg/ml, DAY 2): (+) | growth (Atopobium vaginae BAA-55; TER 6.2 μg/ml, DAY 3): (+) | growth (Atopobium vaginae BAA-55; TER 6.2 μg/ml, DAY 4): (+) | growth (Atopobium vaginae BAA-55; TER 6.2 μg/ml, DAY 5): (+) | growth (Atopobium vaginae BAA-55; TER 12.5 μg/ml, DAY 1): (+) | growth (Atopobium vaginae BAA-55; TER 12.5 μg/ml, DAY 2): (+) | growth (Atopobium vaginae BAA-55; TER 12.5 μg/ml, DAY 3): (+) | growth (Atopobium vaginae BAA-55; TER 12.5 μg/ml, DAY 4): (+) | growth (Atopobium vaginae BAA-55; TER 12.5 μg/ml, DAY 5): (+) | growth (Atopobium vaginae BAA-55; TER 25 μg/ml, DAY 1): (+) | growth (Atopobium vaginae BAA-55; TER 25 μg/ml, DAY 2): (+) | growth (Atopobium vaginae BAA-55; TER 25 μg/ml, DAY 3): (+) | growth (Atopobium vaginae BAA-55; TER 25 μg/ml, DAY 4): (+) | growth (Atopobium vaginae BAA-55; TER 25 μg/ml, DAY 5): (+) | growth (Atopobium vaginae BAA-55; TER 50 μg/ml, DAY 1): (+) | growth (Atopobium vaginae BAA-55; TER 50 μg/ml, DAY 2): (+) | growth (Atopobium vaginae BAA-55; TER 50 μg/ml, DAY 3): (+)
